The record followed here is patent publication US8071810B2, “C5a receptor antagonists” (Jerini AG, priority 2005, dated 2011).

As a reminder, the IC50 is the point on the concentration scale where inhibition reaches its midpoint.

The first assay has as its target T1, human C5a receptor (CD88) (Homo sapiens, UniProt P21730).
T1 construct: expressed in transfected cells; host or cells: rat basophilic leukemia (RBL) cells, stably transfected
T1 sequence (P21730 1-350): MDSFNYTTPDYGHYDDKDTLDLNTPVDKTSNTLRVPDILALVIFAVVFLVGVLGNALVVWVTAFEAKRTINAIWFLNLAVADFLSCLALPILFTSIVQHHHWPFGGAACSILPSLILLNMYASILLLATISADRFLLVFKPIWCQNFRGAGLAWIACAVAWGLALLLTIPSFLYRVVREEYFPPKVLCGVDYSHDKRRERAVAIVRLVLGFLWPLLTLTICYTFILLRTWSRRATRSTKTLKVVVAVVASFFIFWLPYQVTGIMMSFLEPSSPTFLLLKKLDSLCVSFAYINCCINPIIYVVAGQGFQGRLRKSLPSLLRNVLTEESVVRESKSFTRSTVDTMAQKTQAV
The assay can be described thus: C5a induced enzyme (glucosaminidase) release assay in RBL cells expressing the human C5a receptor (Example 28). Conditions: RBL cells with human C5aR; read-out: IC50 for the inhibition of C5a induced enzyme release. In kind it is cell-based. The protocol:
Basophile leukemia cells from rats (RBL), which express the human C5a receptor (CD88), are cultivated in DMEM with 10% fetal calf serum, 100 U/ml penicillin, 100 μg/ml streptomycin and 2 mM glutamin (all constituents are from Biochrome, Berlin) at 37° C. and with 10% CO2 until a confluent layer is obtained. All following details refer to a tissue culture flask with 75 cm^2 surface. The used up medium is removed. The cells are washed with 10 ml PBS (Dulbecco's PBS, Biochrome) and then covered with 3 ml cell dissociation solution (CDS, Sigma). The cells are incubated for 1 minute at room temperature. Then the CDS is removed and the cells are incubated for further 10-15 minutes at 37° C. to detach the cells completely from the flask. 20 μl solution of the compound to be testet are used in the assay. […] The dilution series are prepared in ⅓ or ½ steps. […] The cells are counted and centrifuged (200 g, 10 min). The cell pellet is taken up with pre-heated HAG-CM, and the cell density is adjusted to 2×10^6 Zellen/ml. The cells are incubated for 5 minutes at 37° C. 2.7 μl of a cytochalasin B solution (1000 μg/ml in DMSO, Sigma) are added per ml cell suspension. The Zellen are incubated for another 3 min at 37° C. Then, 75 μl of the cell suspension are added to the 20 μl solution containing the compounds to be tested. […] The cells are again incubated for 10 minutes at 37° C. […] After this the plates are put on ice and centrifuged for 3 minutes at 1200×g and 4° C. […] The plate is incubated for 1 hour at 37° C. […] The IC50 value is determined by solving the four parameter equation y=((A−D)/(1+(x/C)^B))+D.
As to `CCc1c(N)cc(Cl)c(CC)c1NC(=O)N(c1ccc(C(C)C)cc1)[C@H](C)c1ccc(OC)cc1` [compound 56, (R)-3-(3-amino-5-chloro-2,6-diethyl-phenyl)-1-(4-isopropyl-phenyl)-1-[1-(4-methoxy-phenyl)ethyl]-urea], the IC50 was determined as 619 nM.
For `CCc1c(N)cc(Cl)c(CC)c1NC(=O)N(c1ccc(C(C)C)cc1)[C@@H](C)c1ccc(OC)cc1` [compound 66, (S)-3-(3-amino-5-chloro-2,6-diethyl-phenyl)-1-(4-isopropyl-phenyl)-1-[1-(4-methoxy-phenyl)-ethyl]-urea], the IC50 worked out at 55 nM.
`CCc1c(N)cc(Cl)c(CC)c1NC(=O)N(c1ccc(C(C)C)cc1)[C@@H](C)c1ccc(C)cc1` [compound 73, (S)-3-(3-amino-5-chloro-2,6-diethyl-phenyl)-1-(4-isopropyl-phenyl)-1-(1-p-tolyl-ethyl)-urea]: the IC50 is 32 nM.

Still in this assay, the particulars now being: inhibition of C5a induced enzyme release, RBL cells with human C5aR; read-out: Activity-range (antagonistic activity, IC50 enzyme release).
As to `CCc1c(Cl)cc(NCC(N)=O)c(CC)c1NC(=O)N(Cc1ccc(OC)cc1)c1ccc(C(C)C)cc1` [compound 46, 2-{5-chloro-2,4-diethyl-3-[3-(4-isopropyl-phenyl)-3-(4-methoxy-benzyl)-ureido]-phenylamino}-acetamide], the IC50 fell in the range of 200 to 5000 nM.
Regarding `CCc1c(N)cc(Cl)c(CC)c1NC(=O)N(Cc1ccc(OC)nc1)c1ccc(C(C)C)cc1` [compound 47, 3-(3-amino-5-chloro-2,6-diethyl-phenyl)-1-(4-isopropyl-phenyl)-1-(6-methoxy-pyridin-3-ylmethyl)-urea], the IC50 is 200 to 5000 nM.
With `CCc1ccc(N)c(CC)c1NC(=O)N(Cc1ccc(OC)nc1)c1ccc(C(C)C)cc1` [compound 48, 3-(3-amino-2,6-diethyl-phenyl)-1-(4-isopropyl-phenyl)-1-(6-methoxy-pyridin-3-ylmethyl)-urea], the half-maximal inhibitory concentration (IC50) is 200 to 5000 nM.
For `CCc1c(N)cc(Cl)c(CC)c1NC(=O)N(Cc1ccc(C(F)(F)F)cc1)c1ccc(C(C)C)cc1` [compound 49, 3-(3-amino-5-chloro-2,6-diethyl-phenyl)-1-(4-isopropyl-phenyl)-1-(4-trifluormethyl-benzyl)-urea], the IC50 was 200 to 5000 nM.
For the compound `CCc1ccc(N)c(CC)c1NC(=O)N(Cc1ccc(C(F)(F)F)cc1)c1ccc(C(C)C)cc1` [compound 50, 3-(3-amino-2,6-diethyl-phenyl)-1-(4-isopropyl-phenyl)-1-(4-trifluoromethyl-benzyl)-urea], the 50% inhibitory concentration (IC50) was in the range of 200 to 5000 nM.
On the same count and under the same terms, as for `CCc1ccc(N)c(CC)c1NC(=O)N(CCc1ccccc1)c1ccc(C(C)C)cc1` [compound 51, 3-(3-amino-2,6-diethyl-phenyl)-1-(4-isopropyl-phenyl)-1-phenethyl-urea], the figure is 200 to 5000 nM.
As to `CCc1c(N)cc(Cl)c(CC)c1NC(=O)N(CCc1ccc(C)cc1)c1ccc(C(C)C)cc1` [compound 52, 3-(3-amino-5-chloro-2,6-diethyl-phenyl)-1-(4-isopropyl-phenyl)-1-(2-p-tolyl-ethyl)-urea], the IC50 fell in the range of 200 to 5000 nM.
The same measure, in the same setting: as for `CCc1ccc(N(Cc2ccc(C)cc2)C(=O)Nc2c(CC)c(N)cc(Cl)c2CC)cc1` [compound 53, 3-(3-amino-5-chloro-2,6-diethyl-phenyl)-1-(4-ethyl-phenyl)-1-(4-methyl-benzyl)-urea], the figure is 60 to 200 nM; as for `CCc1ccc(N(Cc2ccc(C)cc2)C(=O)Nc2c(CC)ccc(N)c2CC)cc1` [compound 54, 3-(3-amino-2,6-diethyl-phenyl)-1-(4-ethyl-phenyl)-1-(4-methyl-benzyl)-urea], 200 to 5000 nM.
For the compound `CCc1c(Cl)cc(NCC(=O)OC)c(CC)c1NC(=O)N(Cc1ccc(OC)cc1)c1ccc(C(C)C)cc1` [compound 55, {5-chloro-2,4-diethyl-3-[3-(4-isopropyl-phenyl)-3-(4-methoxy-benzyl)-ureido]-phenylamino} acetic acid methyl-ester], the IC50 is 200 to 5000 nM.
The same measure, in the same setting: as for `CCc1c(N)cc(Cl)c(CC)c1NC(=O)N(c1ccc(C(C)C)cc1)[C@H](C)c1ccc(C)cc1` [compound 57, (R)-3-(3-Amino-5-chloro-2,6-diethyl-phenyl)-1-(4-isopropyl-phenyl)-1-(1-p-tolyl-ethyl)-urea], the figure is 200 to 5000 nM; as for `CCc1c(N)cc(Cl)c(CC)c1NC(=O)N(Cc1ccc(OC)cc1F)c1ccc(C(C)C)cc1` [compound 58, 3-(3-amino-5-chloro-2,6-diethyl-phenyl)-1-(2-fluoro-4-methoxy-benzyl)-1-(4-isopropyl-phenyl)-urea], 200 to 5000 nM.
Consider `CCc1ccc(N)c(CC)c1NC(=O)N(Cc1ccc(OC)cc1F)c1ccc(C(C)C)cc1` [compound 59, 3-(3-amino-2,6-diethyl-phenyl)-1-(2-fluoro-4-methoxy-benzyl)-1-(4-isopropyl-phenyl)-urea], for which the IC50 lay in the range of 200 to 5000 nM.
On to `CCc1c(N)cc(Cl)c(CC)c1NC(=O)N(CC1CCCCC1)c1ccc(C(C)C)cc1` [compound 60, 3-(3-amino-5-chloro-2,6-diethyl-phenyl)-1-cyclohexylmethyl-1-(4-isopropyl-phenyl)-urea], for which the IC50 fell in the range of 200 to 5000 nM.
For the compound `CCc1ccc(N)c(CC)c1NC(=O)N(CC1CCCCC1)c1ccc(C(C)C)cc1` [compound 61, 3-(3-amino-2,6-diethyl-phenyl)-1-cyclohexylmethyl-1-(4-isopropyl-phenyl)-urea], the IC50 lay within 200 to 5000 nM.
On the same count and under the same terms, as for `CCc1c(N)cc(Cl)c(CC)c1NC(=O)N(Cc1ccccc1OC)c1ccc(C(C)C)cc1` [compound 62, 3-(3-amino-5-chloro-2,6-diethyl-phenyl)-1-(4-isopropyl-phenyl)-1-(2-methoxy-benzyl)-urea], the figure is 200 to 5000 nM; as for `CCc1ccc(N)c(CC)c1NC(=O)N(Cc1ccccc1OC)c1ccc(C(C)C)cc1` [compound 63, 3-(3-amino-2,6-diethyl-phenyl)-1-(4-isopropyl-phenyl)-1-(2-methoxy-benzyl)-urea], 200 to 5000 nM.
Consider `CCc1c(N)cc(Cl)c(CC)c1NC(=O)N(Cc1ccc(S(C)(=O)=O)cc1)c1ccc(C(C)C)cc1` [compound 64, 3-(3-amino-5-chloro-2,6-diethyl-phenyl)-1-(4-isopropyl-phenyl)-1-(4-methansulfonyl-benzyl)-urea], for which the IC50 is 200 to 5000 nM.
On to `CCc1c(N)cc(Cl)c(CC)c1NC(=O)N(Cc1ccc2c(c1)CCO2)c1ccc(C(C)C)cc1` [compound 65, 3-(3-amino-5-chloro-2,6-diethyl-phenyl)-1-(2,3-dihydro-benzofuran-5-ylmethyl)-1-(4-isopropyl-phenyl)-urea], for which the IC50 fell in the range of 60 to 200 nM.
For `CCc1ccc(N)c(CC)c1NC(=O)N(Cc1ccc2c(c1)CCO2)c1ccc(C(C)C)cc1` [compound 67, 3-(3-amino-2,6-diethyl-phenyl)-1-(2,3-dihydro-benzofuran-5-ylmethyl)-1-(4-isopropyl-phenyl)-urea], the IC50 lay within 200 to 5000 nM.
Consider `CCc1ccc(N)c(CC)c1NC(=O)N(c1ccc(C(C)C)cc1)[C@H](C)c1ccc(C)cc1` [compound 68, (R)-3-(3-amino-2,6-diethyl-phenyl)-1-(4-isopropyl-phenyl)-1-(1-p-tolyl-ethyl)-urea], for which the IC50 was 200 to 5000 nM.
As to `CCc1ccc(N)c(CC)c1NC(=O)N(c1ccc(C(C)C)cc1)[C@@H](C)c1ccc(C)cc1` [compound 69, (S)-3-(3-amino-2,6-diethyl-phenyl)-1-(4-isopropyl-phenyl)-1-(1-p-tolyl-ethyl)-urea], the IC50 fell in the range of 60 to 200 nM.
Take `CCc1ccc(N)c(CC)c1NC(=O)N(c1ccc(C(C)C)cc1)[C@H](C)c1ccc(OC)cc1` [compound 70, (R)-3-(3-amino-2,6-diethyl-phenyl)-1-(4-isopropyl-phenyl)-1-[1-(4-methoxy-phenyl)-ethyl]-urea]: the IC50 lay within 200 to 5000 nM.
On to `CCc1ccc(N)c(CC)c1NC(=O)N(c1ccc(C(C)C)cc1)[C@@H](C)c1ccc(OC)cc1` [compound 71, (S)-3-(3-amino-2,6-diethyl-phenyl)-1-(4-isopropyl-phenyl)-1-[1-(4-methoxy-phenyl)-ethyl]-urea], for which the IC50 is 60 to 200 nM.
On to `CCc1c(N)cc(Cl)c(CC)c1NC(=O)N(Cc1ccc(Cl)cc1)c1ccc(C(C)C)cc1` [compound 72, 3-(3-amino-5-chloro-2,6-diethyl-phenyl)-1-(4-chlor-benzyl)-1-(4-isopropyl-phenyl)-urea], for which the IC50 fell in the range of 60 to 200 nM.
On to `CCc1c(N)cc(Cl)c(CC)c1NC(=O)N(Cc1cccnc1)c1ccc(C(C)C)cc1` [compound 74, 3-(3-amino-5-chloro-2,6-diethyl-phenyl)-1-(4-isopropyl-phenyl)-1-pyridin-3-ylmethyl-urea], for which the IC50 was 200 to 5000 nM.

Still in this assay, the particulars now being: ratio of enzyme release IC50 values.
Regarding `CCc1c(N)cc(Cl)c(CC)c1NC(=O)N(c1ccc(C(C)C)cc1)[C@@H](C)c1ccc(OC)cc1` [compound 66, (S)-3-(3-amino-5-chloro-2,6-diethyl-phenyl)-1-(4-isopropyl-phenyl)-1-[1-(4-methoxy-phenyl)-ethyl]-urea], the “Times higher antagonistic activity of S configuration than (R) configuration (56)” value worked out at 11.
